Measured values as given in US6903238B2, “Substituted indenones as estrogenic agents” (Wyeth, priority 2001, dated 2005).
Read-outs that look alike come from different tables or passages of the source.

What was measured:
human ERβ = target: T1, human ERβ (Homo sapiens, UniProt Q92731); experiment: Radioligand binding competition with [3H]-17β-estradiol, ERβ
T1 construct: M250-V595 of human ERα [Green, et al., Nature 320: 134-9 (1986)] and M214-Q530 of human ERβ; Flag (C); made in house; host or cells: E. coli BL21(DE3)

human ERα = target: T2, human ERα (Homo sapiens, UniProt P03372); experiment: Radioligand binding competition with [3H]-17β-estradiol, ERα; conditions: read-out: ER-α IC50
T2 sequence (P03372 250-595): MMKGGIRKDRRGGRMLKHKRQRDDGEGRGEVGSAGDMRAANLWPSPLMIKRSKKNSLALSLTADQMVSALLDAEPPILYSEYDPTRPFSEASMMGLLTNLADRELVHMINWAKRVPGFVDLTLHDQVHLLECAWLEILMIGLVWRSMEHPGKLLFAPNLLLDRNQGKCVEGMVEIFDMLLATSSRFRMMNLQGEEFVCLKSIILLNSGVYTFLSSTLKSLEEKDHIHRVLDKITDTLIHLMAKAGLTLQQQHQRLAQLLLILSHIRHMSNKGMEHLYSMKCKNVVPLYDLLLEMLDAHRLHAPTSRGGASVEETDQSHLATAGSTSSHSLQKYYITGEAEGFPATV

[1] = test system: metallothionein-II mRNA in Saos-2 cells; experiment: Regulation of metallothionein II mRNA in Saos-2 cells; format: cell-based
[2] = competition with [3H]-17β-estradiol, human ERα ligand binding domain
[3] = competition with [3H]-17β-estradiol, human ERβ ligand binding domain, read-out: ER-β IC50

T1 sequence (Q92731 214-530): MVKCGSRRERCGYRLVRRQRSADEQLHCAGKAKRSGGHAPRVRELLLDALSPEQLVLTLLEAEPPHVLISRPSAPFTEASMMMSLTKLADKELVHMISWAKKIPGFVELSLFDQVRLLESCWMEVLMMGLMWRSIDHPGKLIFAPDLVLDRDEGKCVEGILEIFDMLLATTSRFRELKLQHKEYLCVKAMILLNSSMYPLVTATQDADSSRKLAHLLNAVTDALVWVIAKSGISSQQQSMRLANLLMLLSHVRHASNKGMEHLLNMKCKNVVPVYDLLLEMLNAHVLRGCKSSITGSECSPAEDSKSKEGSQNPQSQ

IC50 (human ERβ) | IC50 (human ERα; [2]) | melting point | IC50 (human ERα) | Structure (SMILES) | IC50 (human ERβ; [3]) | Fold upregulation of metallothionein-II mRNA [1]
1 nM | 3 nM | 183 to 185 °C |  | CSC1=C(c2ccc(O)cc2)C(=O)c2ccc(O)cc21 [Example 9, 5-hydroxy-2-(4-hydroxyphenyl)-3-(methylthio)-1H-inden-1-one] |  | 
8 nM | 10 nM | 100 to 110 °C |  | O=C1C(c2ccc(O)cc2)=C(c2ccccc2)c2ccc(O)cc21 [Example 10, 6-hydroxy-2-(4-hydroxyphenyl)-3-phenyl-1H-inden-1-one] |  | 
5 nM | 15 nM | 222 to 225 °C |  | O=C1C(c2ccc(O)cc2)=C(c2ccccc2)c2cc(O)ccc21 [Example 11, 5-hydroxy-2-(4-hydroxyphenyl)-3-phenyl-1H-inden-1-one] |  | 
 | 714 nM | 350 °C (dec.) |  | O=C1C(c2ccc(O)cc2)=C(Br)c2c(O)cc(O)cc21 [Example 15, 3-bromo-4,6-dihydroxy-2-(4-hydroxyphenyl)-1H-inden-1-one] | 267 nM | 5.6
2 nM | 31 nM | 215 to 217 °C |  | CC1=C(c2ccc(O)cc2)C(=O)c2c(O)cc(O)cc21 [Example 17, 5,7-Dihydroxy-2-(4-hydroxyphenyl)-3-methyl-1H-inden-1-one] |  | 
 |  | 208 to 210 °C |  | CSC1=C(c2ccc(O)cc2)C(=O)c2cc(O)cc(O)c21 [Example 18, 4,6-Dihydroxy-2-(4-hydroxyphenyl)-3-(methylthio)-1H-inden-1-one] |  | 
2 nM | 3 nM | 187 to 190 °C |  | CCSC1=C(c2ccc(O)cc2)C(=O)c2cc(O)cc(O)c21 [Example 19, 3-(Ethylthio)-4,6-Dihydroxy-2-(4-hydroxyphenyl)-1H-inden-1-one] |  | 
 |  | 128 to 130 °C | 3 nM | O=C1C(c2ccc(O)cc2)=C(c2ccccc2)c2cc(O)cc(O)c21 [Example 21, 5,7-Dihydroxy-2-(4-hydroxyphenyl)-3-phenyl-1H-inden-1-one] |  | 
 | 76 nM | 226 to 229 °C |  | CC1=C(c2ccc(O)cc2)C(=O)c2cc(O)c(O)cc21 [Example 22, 5,6-Dihydroxy-2-(4-hydroxyphenyl)-3-methyl-1H-inden-1-one] | 131 nM | 

Second part, the compound before the results:

Structure (SMILES) | IC50 (human ERβ) | IC50 (human ERα; [2]) | melting point | IC50 (human ERα) | IC50 (human ERβ; [3]) | Fold upregulation of metallothionein-II mRNA [1]
NC1=C(c2ccc(O)cc2)C(=O)c2ccc(O)cc21 [Example 1, 3-Amino-5-hydroxy-2-(4-hydroxyphenyl)-1H-inden-1-one] | 1150 nM | > 5000 nM | 260 to 265 °C |  |  | 
O=C1c2ccc(O)cc2C(=O)C1c1ccc(O)cc1 (stereo not drawn) [Example 2, 5-Hydroxy-2-(4-hydroxyphenyl)-1H-indene-1,3(2H)-dione] |  |  | 227 to 228 °C |  | 2630 nM | 
O=C1C(c2ccc(O)cc2)=C(Br)c2ccc(O)cc21 [Example 3, 3-Bromo-6-hydroxy-2-(4-hydroxyphenyl)-1H-inden-1-one] |  | 290 nM | 240 °C (dec.) |  |  | 10.8
O=C1C(c2ccc(O)cc2)=C(Br)c2cc(O)ccc21 [Example 4, 3-Bromo-5-hydroxy-2-(4-hydroxyphenyl)-1H-inden-1-one] | 2 nM | 5 nM | 245 °C (dec.) |  |  | 10.4
CCNC1=C(c2ccc(O)cc2)C(=O)c2cc(O)ccc21 [Example 5, 3-(Ethylamino)-6-hydroxy-2-(4-hydroxyphenyl)-1H-inden-1-one] |  | > 5000 nM | 250 °C (dec.) |  | 2700 nM | 
CCSC1=C(c2ccc(O)cc2)C(=O)c2cc(O)ccc21 [Example 6, 3-(Ethylthio)-6-hydroxy-2-(4-hydroxyphenyl)-1H-inden-1-one] |  | 10 nM | 78 to 81 °C |  | 8 nM | 
CCSC1=C(c2ccc(O)cc2)C(=O)c2ccc(O)cc21 [Example 7, 3-(Ethylthio)-5-hydroxy-2-(4-hydroxyphenyl)-1H-inden-1-one] |  | 400 nM | 118 to 120 °C |  | 150 nM | 
CSC1=C(c2ccc(O)cc2)C(=O)c2cc(O)ccc21 [Example 8, 6-hydroxy-2-(4-hydroxyphenyl)-3-(methylthio)-1H-inden-1-one] |  | 12 nM | 90 to 92 °C |  | 3 nM | 
CC1=C(c2ccc(O)cc2)C(=O)c2cc(O)ccc21 [Example 12, 6-hydroxy-2-(4-hydroxyphenyl)-3-methyl-1H-inden-1-one] |  | 55 nM | 240 to 245 °C |  | 11 nM | 
CC1=C(c2ccc(O)cc2)C(=O)c2ccc(O)cc21 [Example 13, 5-hydroxy-2-(4-hydroxyphenyl)-3-methyl-1H-inden-1-one] |  | 6 nM | 251 °C |  | 2 nM | 
O=C1c2cc(O)cc(O)c2C(=O)C1c1ccc(O)cc1 (stereo not drawn) [Example 14, 4,6-dihydroxy-2-(4-hydroxyphenyl)-1H-inden-1,3(2H)-dione] |  |  | 220 to 222 °C |  | 1380 nM | 
COc1cc(O)cc2c1C(Br)=C(c1ccc(O)cc1)C2=O [Example 16, 3-bromo-6-hydroxy-2-(4-hydroxyphenyl)-4-methoxy-1H-inden-1-one] |  | 200 nM | 210 °C (dec.) |  | 150 nM | 
O=C1C(c2ccc(O)cc2)=C(c2ccccc2)c2c(O)cc(O)cc21 [Example 20, 4,6-Dihydroxy-2-(4-hydroxyphenyl)-3-phenyl-1H-inden-1-one] |  | 47 nM | 223 to 225 °C |  | 44 nM | 
